Like-named read-outs stand apart in the source and are kept apart here.
Legend:
[1] = tested on: red beet plants (Monty Rz and Belushi Rz); test: Field trial with several harvests: betalain accumulation during root growth after foliar spraying with egc; format: in vivo, red beet (Beta vulgaris L. spp. vulgaris); conditions: for Bn content at peak: 9 weeks after sowing as printed; for Betalains (mg kg^−1 FW) Bn / Betalains (mg kg^−1 FW) Vx / Bn:Vx: egc 360 g ha^−1
Protocol: (§1) Field trials were conducted at the Hoejbakkegaard (latitude 55, […]; Denmark) in 2015, where three-row plots were arranged in randomized block designs with three replicates. Rainfall was complemented by irrigation throughout red beet growth to avoid water stress. Foliar applications of an ethylene generating compound (egc), 2-chloroethylphosphonic acid (CERONE® brand ETHEPHON, 39.9% active ingredient, Bayer Crop Science, Leverkusen, Germany), at a concentration of 360 g ha^−1 were performed with a CO2 backpack spaced 50 cm apart, using manual spraying equipment designed for agricultural use. Egc application began 5 weeks after sowing and continued every 3 weeks, with a total of five applications. Plants were cultivated in loamy soil using techniques recommended for cultivation and plant protection in red beet crop production.
Trial 2. Plots consisted of 12 m-long rows, with several harvests from separate row segments performed during growth (3, 6, 9, 12, 15 and 18 weeks after sowing). For further analyses, biological replicates consisted of 20 whole beetroots harvested per plot.
(§2) Biological replicates consisting of twenty beetroots were washed and split lengthwise. Of these, one pool of halves was ground and homogenized in a 3% sulfuric acid solution (1/1, w/w), using a Waring® two-speed commercial blender (VWR—Bie & Berntsen, Herlev, Denmark). The resulting fine homogenate was subsequently mixed with demineralized water (1/2, w/w) and vortexed. Finally, the sample was centrifuged for 20 min at 4500 rpm, and the supernatant (extract) was utilized for further analyses.
Bn and Vx were measured spectrophotometrically. The beetroot extract was diluted to a proper concentration in 33 mM KH2PO4 (pH 6.5), and the absorption was measured at 476 nm and 538 nm for Bn and Vx, respectively, using a UV-visible spectrophotometer (Thermo Scientific Evolution™ 220, Waltham, Mass., USA). Bn and Vx concentrations were expressed in mg kg^−1 fresh weight (FW), using the corresponding absorbance, molecular weight and extinction coefficient for Bn and Vx. […]

[2] = tested on: beet root; conditions: 50 ppm; cited from earlier work
[3] = tested on: red beet plants (Monty Rz and Belushi Rz); test: Field trials harvested at a single time-point: foliar spraying of red beet plants with egc, betalain pigments and yield data of roots; format: in vivo, red beet (Beta vulgaris L. spp. vulgaris); conditions: for Betalains (g kg^−1 DM) / Betalains (mg kg^−1 FW) Bn / Betalains (mg kg^−1 FW) Vx / Betalains:TSS / Bn:Vx: egc 360 g ha^−1 foliar, roots 16 weeks after sowing
Protocol: as §1
Trial 1. Plants were grown in plots consisted of 4.5 m-long rows, with a single harvest from the middle part of each row performed 16 weeks after sowing.
as §2
Bn and Vx were measured spectrophotometrically. The beetroot extract was diluted to a proper concentration in 33 mM KH2PO4 (pH 6.5), and the absorption was measured at 476 nm and 538 nm for Bn and Vx, respectively, using a UV-visible spectrophotometer (Thermo Scientific Evolution™ 220, Waltham, Mass., USA). Bn and Vx concentrations were expressed in mg kg^−1 fresh weight (FW), using the corresponding absorbance, molecular weight and extinction coefficient for Bn and Vx.
TSS was measured with a manual refractometer (Refracto 30PX/GS Mettler-Toledo Inc., OH, USA) operating in the 0% to 85% Brix range. The beetroot extract was filtered through 0.45 μm membrane filters, and Brix measurements were performed using 1 mL of the filtrate.
DM was determined after samples were dried to a constant weight at 100° C. for 24 h, based on the difference in mass between the fresh and dry samples. […] was then expressed as a percentage of the dry matter.

[4] = tested on: A. Mangostanus seedlings; conditions: cited from earlier work
[5] = Belushi Rz, 3 weeks after sowing
[6] = Belushi Rz, 6 weeks after sowing
[7] = Belushi Rz, 9 weeks after sowing
[8] = Belushi Rz, 12 weeks after sowing
[9] = Belushi Rz, 15 weeks after sowing
[10] = Belushi Rz, 18 weeks after sowing
[11] = Monty Rz, 12 weeks after sowing
[12] = Monty Rz, 15 weeks after sowing
[13] = Monty Rz, 18 weeks after sowing

## O=P(O)(O)CCCl [egc, 2-chloroethylphosphonic acid]
[1]; Belushi Rz
  Bn:Vx higher in egc treated plants, average over all harvests: 35%
  higher Bn content than untreated, average of all harvests: 10%
  mean root Vx, less in average: 20%
  Bn content at peak: 2577 mg kg^−1 FW
[1]; [5]
  Betalains (mg kg^−1 FW) Bn: 945 mg kg^−1 FW
  Betalains (mg kg^−1 FW) Vx: 24.3 mg kg^−1 FW
  Bn:Vx: 39.0
[1]; [6]
  Betalains (mg kg^−1 FW) Bn: 2577 mg kg^−1 FW
  Betalains (mg kg^−1 FW) Vx: 58.4 mg kg^−1 FW
  Bn:Vx: 45.7
[1]; [7]
  Betalains (mg kg^−1 FW) Bn: 2144 mg kg^−1 FW
  Betalains (mg kg^−1 FW) Vx: 128 mg kg^−1 FW
  Bn:Vx: 17.2
[1]; [8]
  Betalains (mg kg^−1 FW) Bn: 1683 mg kg^−1 FW
  Betalains (mg kg^−1 FW) Vx: 157 mg kg^−1 FW
  Bn:Vx: 11.1
[1]; [9]
  Betalains (mg kg^−1 FW) Bn: 1442 mg kg^−1 FW
  Betalains (mg kg^−1 FW) Vx: 211 mg kg^−1 FW
  Bn:Vx: 6.84
[1]; [10]
  Betalains (mg kg^−1 FW) Bn: 1369 mg kg^−1 FW
  Betalains (mg kg^−1 FW) Vx: 286 mg kg^−1 FW
  Bn:Vx: 4.85
[1]; Monty Rz
  Bn:Vx higher in egc treated plants, average over all harvests: 17%
  higher Bn content than untreated, average of all harvests: 17%
  mean root Vx, less in average: 5%
  Bn content at peak: 2867 mg kg^−1 FW
[1]; Monty Rz, 3 weeks after sowing
  Betalains (mg kg^−1 FW) Bn: 1343 mg kg^−1 FW
  Betalains (mg kg^−1 FW) Vx: 32.3 mg kg^−1 FW
  Bn:Vx: 41.6
[1]; Monty Rz, 6 weeks after sowing
  Betalains (mg kg^−1 FW) Bn: 2867 mg kg^−1 FW
  Betalains (mg kg^−1 FW) Vx: 62.3 mg kg^−1 FW
  Bn:Vx: 46.5
[1]; Monty Rz, 9 weeks after sowing
  Betalains (mg kg^−1 FW) Bn: 2685 mg kg^−1 FW
  Betalains (mg kg^−1 FW) Vx: 180 mg kg^−1 FW
  Bn:Vx: 14.9
[1]; [11]
  Betalains (mg kg^−1 FW) Bn: 2475 mg kg^−1 FW
  Betalains (mg kg^−1 FW) Vx: 239 mg kg^−1 FW
  Bn:Vx: 10.5
[1]; [12]
  Betalains (mg kg^−1 FW) Bn: 2274 mg kg^−1 FW
  Betalains (mg kg^−1 FW) Vx: 304 mg kg^−1 FW
  Bn:Vx: 7.56
[1]; [13]
  Betalains (mg kg^−1 FW) Bn: 2219 mg kg^−1 FW
  Betalains (mg kg^−1 FW) Vx: 455 mg kg^−1 FW
  Bn:Vx: 4.89
[1]; both cultivars, 6 weeks after sowing
  highest Bn:Vx: 46
[1]; both cultivars, at each harvest point, 360 g egc ha−1
  root mass and diameter, untreated versus treated red beets: no significant differences
[2]
  beta cyanin efflux: promoted
[3]; 16-week-old plants
  Vx content of roots, untreated versus treated plants: did not vary significantly
[3]; Belushi Rz
  increase of Bn:Vx compared with untreated plants: 36%
  increase of betalains:TSS in average: 30%
  increase of root Bn content compared with untreated plants, in average: 20%
[3]; Belushi Rz, egc treated beetroots
  mean Bn:Vx: 6.1
[3]; Field trial 1, Belushi Rz
  Betalains (g kg^−1 DM): 17.4 g kg^−1 DM
  Betalains (mg kg^−1 FW) Bn: 1575 mg kg^−1 FW
  Betalains (mg kg^−1 FW) Vx: 274 mg kg^−1 FW
  Betalains:TSS: 0.126
  Bn:Vx: 5.82
[3]; Field trial 1, Monty Rz
  Betalains (g kg^−1 DM): 21.9 g kg^−1 DM
  Betalains (mg kg^−1 FW) Bn: 2166 mg kg^−1 FW
  Betalains (mg kg^−1 FW) Vx: 386 mg kg^−1 FW
  Betalains:TSS: 0.154
  Bn:Vx: 5.79
[3]; Field trial 2, Belushi Rz
  Betalains (g kg^−1 DM): 15.0 g kg^−1 DM
  Betalains (mg kg^−1 FW) Bn: 1584 mg kg^−1 FW
  Betalains (mg kg^−1 FW) Vx: 247 mg kg^−1 FW
  Betalains:TSS: 0.088
  Bn:Vx: 6.42
[3]; Field trial 2, Monty Rz
  Betalains (g kg^−1 DM): 21.5 g kg^−1 DM
  Betalains (mg kg^−1 FW) Bn: 2458 mg kg^−1 FW
  Betalains (mg kg^−1 FW) Vx: 364 mg kg^−1 FW
  Betalains:TSS: 0.132
  Bn:Vx: 6.88
[3]; Monty Rz
  increase of Bn:Vx compared with untreated plants: 34%
  increase of betalains:TSS in average: 37%
  increase of root Bn content compared with untreated plants: 25%
[3]; Monty Rz, egc treated beetroots
  mean Bn:Vx: 6.3
[3]; both cultivars
  Bn:Vn upon ethephon treatment: increased substantially
  effect on beetroot yield in tons per hectare: no significant effects
  effect on root FW: no significant effects
[3]; both cultivars, 16-week-old plants
  Bn content of roots versus untreated plants: increased
[3]; egc treated beetroots
  DM (dry matter) of beetroots versus untreated roots: lower
  betalain content versus untreated roots: higher
  mean TSS versus untreated roots: lower
[4]; 0.1 mM
  pigment accumulation in seedlings: did not elicit pigment accumulation
[4]; 1 mM
  pigment accumulation in seedlings: did not elicit pigment accumulation
[4]; 5 mM
  pigment accumulation in seedlings: seemed to have an effect
